Experimental data as given in patent US9833497B2, “Human originated EGF domain proteins and use of the same” (CHENGDU SOURCEBIO LIMITED-LIABILITY COMPANY, priority 2013, dated 2017).

Tests used:
Format in all cases: cell-based
E. coli DH5α = test: Antibacterial activity: MIC and growth curve against E. coli DH5α in 96-well plate; settings: minimal inhibitory concentration against E. coli DH5α; 96-well plate, 5×10^5 CFU/mL, 37° C., judged after 8 h
How it was run: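 Log-phase DH5α (OD600 about 0.5, 37° C, 185 rpm in LB) was pelleted, resuspended in fresh LB and seeded at 5×10^5 CFU/mL with recombinant protein at 50, 25 and 12.5 μg/mL (two-fold series), in triplicate. Plates were shaken at 175 rpm, 37° C, and OD600 was read every 30 min. MIC was the lowest concentration with no growth.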

E. coli BL21 = test: MIC against Gram-negative bacteria: E. coli BL21
How it was run: (§1)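 Purified recombinant human EGF domain proteins are tested by broth dilution in LB against a 5×10^5 CFU/mL inoculum, with two-fold serial dilutions run in triplicate. Plates are incubated at 37° C with shaking, and the MIC is read as the lowest protein concentration without growth.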

Pseudomonas aeruginosa = test: MIC against Gram-negative bacteria: Pseudomonas aeruginosa
How it was run: as §1

Klebsiella pneumonia = test: MIC against Gram-negative bacteria: Klebsiella pneumonia
How it was run: as §1

Enterobacter cloacae = test: MIC against Gram-negative bacteria: Enterobacter cloacae
How it was run: as §1

Aeromonas hydrophila = test: MIC against Gram-negative bacteria: Aeromonas hydrophila
How it was run: as §1

Citrobacter diversus = test: MIC against Gram-negative bacteria: Citrobacter diversus
How it was run: as §1

Moraxella catarrhalis = test: MIC against Gram-negative bacteria: Moraxella catarrhalis
How it was run: as §1

Proteus mirabilis = test: MIC against Gram-negative bacteria: Proteus mirabilis
How it was run: as §1

Proteus vulgaris = test: MIC against Gram-negative bacteria: Proteus vulgaris
How it was run: as §1

Serratia marcescens = test: MIC against Gram-negative bacteria: Serratia marcescens
How it was run: as §1

[1] = 96-well plate, 5×10^5 CFU/mL, 37° C., 10 h
[2] = 10 h cultivation at 37° C., 5×10^5 CFU/mL, two-fold serial dilution
[3] = E. coli BL21, 96-well plate, 5×10^5 CFU/mL, 37° C., 10 h
[4] = Pseudomonas aeruginosa, 96-well plate, 5×10^5 CFU/mL, 37° C., 10 h
[5] = Klebsiella pneumonia, 96-well plate, 5×10^5 CFU/mL, 37° C., 10 h
[6] = Enterobacter cloacae, 96-well plate, 5×10^5 CFU/mL, 37° C., 10 h
[7] = Aeromonas hydrophila, 96-well plate, 5×10^5 CFU/mL, 37° C., 10 h
[8] = Citrobacter diversus, 96-well plate, 5×10^5 CFU/mL, 37° C., 10 h
[9] = Moraxella catarrhalis, 96-well plate, 5×10^5 CFU/mL, 37° C., 10 h
[10] = Proteus mirabilis, 96-well plate, 5×10^5 CFU/mL, 37° C., 10 h
[11] = Proteus vulgaris, 96-well plate, 5×10^5 CFU/mL, 37° C., 10 h
[12] = Serratia marcescens, 96-well plate, 5×10^5 CFU/mL, 37° C., 10 h
[13] = E. coli BL21, 10 h cultivation at 37° C., 5×10^5 CFU/mL
[14] = P. aeruginosa, 10 h cultivation at 37° C., 5×10^5 CFU/mL
[15] = K. pneumonia, 10 h cultivation at 37° C., 5×10^5 CFU/mL
[16] = E. cloacae, 10 h cultivation at 37° C., 5×10^5 CFU/mL
[17] = A. hydrophila, 10 h cultivation at 37° C., 5×10^5 CFU/mL
[18] = C. diversus, 10 h cultivation at 37° C., 5×10^5 CFU/mL
[19] = M. catarrhalis, 10 h cultivation at 37° C., 5×10^5 CFU/mL
[20] = P. mirabilis, 10 h cultivation at 37° C., 5×10^5 CFU/mL
[21] = P. vulgaris, 10 h cultivation at 37° C., 5×10^5 CFU/mL
[22] = S. marcescens, 10 h cultivation at 37° C., 5×10^5 CFU/mL

PRT710 (DQDECAVYGTCSQTCRNTHGSYTCSCVEGYLMQPDNRSCK; listed as Homo sapiens)
12.5 µg/mL: MIC E. coli BL21 (E. coli BL21; [1]) | MIC K. pneumonia (Klebsiella pneumonia; [1]) | MIC A. hydrophila (Aeromonas hydrophila; [1]) | MIC P. mirabilis (Proteus mirabilis; [1])
50 µg/mL: MIC P. aeruginosa (Pseudomonas aeruginosa; [1]) | MIC E. cloacae (Enterobacter cloacae; [1]) | MIC C. diversus (Citrobacter diversus; [1]) | MIC S. marcescens (Serratia marcescens; [1])
25 µg/mL: MIC (E. coli DH5α) | MIC M. catarrhalis (Moraxella catarrhalis; [1]) | MIC P. vulgaris (Proteus vulgaris; [1])

PRT1137 (ESNECKMNPCKNNSTCTDLYKSYRCECTSGWTGQNCS; listed as Homo sapiens)
50 µg/mL: MIC E. coli BL21 (E. coli BL21; [2]) | MIC A. hydrophila (Aeromonas hydrophila; [2]) | MIC M. catarrhalis (Moraxella catarrhalis; [2]) | MIC P. vulgaris (Proteus vulgaris; [2])
25 µg/mL: MIC (E. coli DH5α) | MIC P. aeruginosa (Pseudomonas aeruginosa; [2]) | MIC E. cloacae (Enterobacter cloacae; [2])
12.5 µg/mL: MIC K. pneumonia (Klebsiella pneumonia; [2]) | MIC C. diversus (Citrobacter diversus; [2]) | MIC P. mirabilis (Proteus mirabilis; [2]) | MIC S. marcescens (Serratia marcescens; [2])

PRT1269 (DIDECQTRNGGCDHFCKNIVGSFDCGCKKGFKLLTDEKSCQ; listed as Homo sapiens)
12.5 µg/mL: MIC (E. coli DH5α) | MIC against K. pneumonia (Klebsiella pneumonia; [5]) | MIC against C. diversus (Citrobacter diversus; [8]) | MIC against P. mirabilis (Proteus mirabilis; [10]) | MIC against S. marcescens (Serratia marcescens; [12])
50 µg/mL: MIC against E. coli BL21 (E. coli BL21; [3]) | MIC against A. hydrophila (Aeromonas hydrophila; [7]) | MIC against M. catarrhalis (Moraxella catarrhalis; [9]) | MIC against P. vulgaris (Proteus vulgaris; [11])
25 µg/mL: MIC against P. aeruginosa (Pseudomonas aeruginosa; [4]) | MIC against E. cloacae (Enterobacter cloacae; [6])

PRT899 (NINECASNPCLNQGTCIDDVAGYKCNCLLPYTGATCE; listed as Homo sapiens)
50 µg/mL: MIC (Enterobacter cloacae; E. cloacae, 10 h cultivation at 37° C.) | MIC (Citrobacter diversus; C. diversus, 10 h cultivation at 37° C.) | MIC (Proteus mirabilis; P. mirabilis, 10 h cultivation at 37° C.)
12.5 µg/mL: MIC (E. coli DH5α) | MIC (E. coli BL21; E. coli BL21, 10 h cultivation at 37° C.) | MIC (Pseudomonas aeruginosa; P. aeruginosa, 10 h cultivation at 37° C.) | MIC (Klebsiella pneumonia; K. pneumonia, 10 h cultivation at 37° C.) | MIC (Aeromonas hydrophila; A. hydrophila, 10 h cultivation at 37° C.) | MIC (Moraxella catarrhalis; M. catarrhalis, 10 h cultivation at 37° C.) | MIC (Proteus vulgaris; P. vulgaris, 10 h cultivation at 37° C.) | MIC (Serratia marcescens; S. marcescens, 10 h cultivation at 37° C.)

PRT252 (TAACTNTSCSGHGECVETINNYTCKCDPGFSGLKCE; listed as Homo sapiens)
25 µg/mL: MIC (E. coli DH5α) | MIC (μg/mL) P. aeruginosa (Pseudomonas aeruginosa; [14]) | MIC (μg/mL) E. cloacae (Enterobacter cloacae; [16]) | MIC (μg/mL) C. diversus (Citrobacter diversus; [18]) | MIC (μg/mL) P. mirabilis (Proteus mirabilis; [20]) | MIC (μg/mL) S. marcescens (Serratia marcescens; [22])
12.5 µg/mL: MIC (μg/mL) E. coli BL21 (E. coli BL21; [13]) | MIC (μg/mL) K. pneumonia (Klebsiella pneumonia; [15]) | MIC (μg/mL) A. hydrophila (Aeromonas hydrophila; [17]) | MIC (μg/mL) M. catarrhalis (Moraxella catarrhalis; [19]) | MIC (μg/mL) P. vulgaris (Proteus vulgaris; [21])

PRT644 (DINECQLQGVCPNGECLNTMGSYRCTCKIGFGPDPTFS; listed as Homo sapiens)
25 µg/mL: MIC (E. coli DH5α) | MIC P. aeruginosa (Pseudomonas aeruginosa; [1]) | MIC E. cloacae (Enterobacter cloacae; [1]) | MIC C. diversus (Citrobacter diversus; [1]) | MIC P. mirabilis (Proteus mirabilis; [1]) | MIC S. marcescens (Serratia marcescens; [1])
12.5 µg/mL: MIC E. coli BL21 (E. coli BL21; [1]) | MIC A. hydrophila (Aeromonas hydrophila; [1])
100 µg/mL: MIC P. vulgaris (Proteus vulgaris; [1])
50 µg/mL: MIC K. pneumonia (Klebsiella pneumonia; [1]) | MIC M. catarrhalis (Moraxella catarrhalis; [1])

PRT1083 (GTNVCAVANGGCQQLCLYRGRGQRACACAHGMLAEDGASCR; listed as Homo sapiens)
12.5 µg/mL: MIC E. coli BL21 (E. coli BL21; [2]) | MIC C. diversus (Citrobacter diversus; [2])
50 µg/mL: MIC (E. coli DH5α) | MIC P. aeruginosa (Pseudomonas aeruginosa; [2]) | MIC K. pneumonia (Klebsiella pneumonia; [2]) | MIC E. cloacae (Enterobacter cloacae; [2]) | MIC M. catarrhalis (Moraxella catarrhalis; [2]) | MIC P. vulgaris (Proteus vulgaris; [2])
25 µg/mL: MIC A. hydrophila (Aeromonas hydrophila; [2]) | MIC P. mirabilis (Proteus mirabilis; [2]) | MIC S. marcescens (Serratia marcescens; [2])

PRT27 (NACASGPCPPHADCRDLWQTFSCTCQPGYYGPGCV; listed as Homo sapiens)
50 µg/mL: MIC (μg/mL) P. aeruginosa (Pseudomonas aeruginosa; [4]) | MIC (μg/mL) C. diversus (Citrobacter diversus; [8]) | MIC (μg/mL) P. vulgaris (Proteus vulgaris; [11])
25 µg/mL: MIC (μg/mL) E. coli BL21 (E. coli BL21; [3]) | MIC (μg/mL) K. pneumonia (Klebsiella pneumonia; [5]) | MIC (μg/mL) A. hydrophila (Aeromonas hydrophila; [7]) | MIC (μg/mL) P. mirabilis (Proteus mirabilis; [10])
12.5 µg/mL: MIC (E. coli DH5α) | MIC (μg/mL) E. cloacae (Enterobacter cloacae; [6]) | MIC (μg/mL) M. catarrhalis (Moraxella catarrhalis; [9])
100 µg/mL: MIC (μg/mL) S. marcescens (Serratia marcescens; [12])

PRT1146 (SIDNCAEPELNSVICLNGGICVDGPGHTFDCRCLPGFSGQFCE; listed as Homo sapiens)
50 µg/mL: MIC (E. coli DH5α) | MIC E. cloacae (Enterobacter cloacae; [2]) | MIC M. catarrhalis (Moraxella catarrhalis; [2]) | MIC P. vulgaris (Proteus vulgaris; [2])
12.5 µg/mL: MIC P. aeruginosa (Pseudomonas aeruginosa; [2]) | MIC A. hydrophila (Aeromonas hydrophila; [2]) | MIC P. mirabilis (Proteus mirabilis; [2]) | MIC S. marcescens (Serratia marcescens; [2])
25 µg/mL: MIC E. coli BL21 (E. coli BL21; [2]) | MIC K. pneumonia (Klebsiella pneumonia; [2]) | MIC C. diversus (Citrobacter diversus; [2])

PRT20 (QKNLCNNTGDPEMCPENGSCVPDGPGLLQCVCADGFHGYKCM; listed as Homo sapiens)
50 µg/mL: MIC (μg/mL) P. aeruginosa (Pseudomonas aeruginosa; [4]) | MIC (μg/mL) A. hydrophila (Aeromonas hydrophila; [7]) | MIC (μg/mL) P. mirabilis (Proteus mirabilis; [10])
25 µg/mL: MIC (μg/mL) E. coli BL21 (E. coli BL21; [3]) | MIC (μg/mL) K. pneumonia (Klebsiella pneumonia; [5]) | MIC (μg/mL) C. diversus (Citrobacter diversus; [8]) | MIC (μg/mL) P. vulgaris (Proteus vulgaris; [11])
12.5 µg/mL: MIC (E. coli DH5α) | MIC (μg/mL) E. cloacae (Enterobacter cloacae; [6]) | MIC (μg/mL) M. catarrhalis (Moraxella catarrhalis; [9]) | MIC (μg/mL) S. marcescens (Serratia marcescens; [12])

PRT843 (CQCNGHGDPRRGHCDNLSGLCFCQDHTEGAHCQLCSPGYYGDPRAGGSCFR; listed as Homo sapiens)
12.5 µg/mL: MIC (μg/mL) E. coli BL21 (E. coli BL21; [13]) | MIC (μg/mL) P. aeruginosa (Pseudomonas aeruginosa; [14]) | MIC (μg/mL) K. pneumonia (Klebsiella pneumonia; [15]) | MIC (μg/mL) M. catarrhalis (Moraxella catarrhalis; [19])
50 µg/mL: MIC (μg/mL) A. hydrophila (Aeromonas hydrophila; [17]) | MIC (μg/mL) S. marcescens (Serratia marcescens; [22])
25 µg/mL: MIC (E. coli DH5α) | MIC (μg/mL) E. cloacae (Enterobacter cloacae; [16]) | MIC (μg/mL) C. diversus (Citrobacter diversus; [18]) | MIC (μg/mL) P. mirabilis (Proteus mirabilis; [20]) | MIC (μg/mL) P. vulgaris (Proteus vulgaris; [21])
